# Reference: PubChem BioAssay AID248 (DTP/NCI, 2004)
# Several values for one entry are separate records, joined by “and”; a condition that tells them apart may be missing. Identical values can stand only once. Toxic doses and inconclusive results are not listed. Bridge positions count the residues as written; N and C are the ends. Square brackets hold non-standard residues; d marks the D form. Peptide text beside a SMILES is read from it. NMeV = CN[CH](C(=O)O)C(C)C; Sar = CNCC(=O)O
# Tested on: L1210 leukemia ip in BDF1 mice, survival T/C
# Assay: NCI In Vivo Anticancer Drug Screen. Data for tumor model L1210 Leukemia (intraperitoneal) in B6D2F1 (BDF1) mice
# Details: endpoint: mean survival time, higher = longer survival
# How it was run: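 In this screen, tumor-bearing mice given compound are compared to those given vehicle, and their survival values are reported as a treated-to-control quotient.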
# [1] = dose: 100.0 mg/kg/injection, schedule: Q01DX001 (ip), vehicle: saline
# [2] = dose: 200.0 mg/kg/injection, schedule: Q01DX001 (ip), vehicle: saline
# [3] = dose: 100.0 mg/kg/injection, schedule: Q01DX001 (ip), vehicle: saline with Tween-80
# [4] = dose: 200.0 mg/kg/injection, schedule: Q01DX001 (ip), vehicle: saline with Tween-80
# [5] = dose: 400.0 mg/kg/injection, schedule: Q01DX001 (ip), vehicle: saline with Tween-80
# [6] = dose: 50.0 mg/kg/injection, schedule: Q01DX009 (ip), vehicle: saline with Tween-80
# [7] = dose: 100.0 mg/kg/injection, schedule: Q01DX009 (ip), vehicle: saline with Tween-80
# [8] = dose: 200.0 mg/kg/injection, schedule: Q01DX009 (ip), vehicle: saline with Tween-80
# [9] = dose: 6.25 mg/kg/injection, schedule: Q01DX009 (ip), vehicle: saline with Tween-80
# [10] = dose: 12.5 mg/kg/injection, schedule: Q01DX009 (ip), vehicle: saline with Tween-80
# [11] = dose: 25.0 mg/kg/injection, schedule: Q01DX009 (ip), vehicle: saline with Tween-80
structure (smiles),measurement,setting,value
CC(C)C1NC(=O)C(N)C(C)OC(=O)C(C(C)C)N(C)C(=O)CN(C)C(=O)C2CCCN2C1=O (stereo not given) (tested in a mixture with another compound) (H-TVP[Sar][NMeV]; ester 1-C; configuration not given here),T/C,"dose: 0.1 mg/kg/injection, schedule: Q01DX001 (ip), vehicle: saline + alcohol",103 % of control
same,T/C,"dose: 0.2 mg/kg/injection, schedule: Q01DX001 (ip), vehicle: saline + alcohol",107 % of control
same,T/C,"dose: 0.4 mg/kg/injection, schedule: Q01DX001 (ip), vehicle: saline + alcohol",124 % of control
same,T/C,"dose: 0.8 mg/kg/injection, schedule: Q01DX001 (ip), vehicle: saline + alcohol",122 % of control
same,T/C,"dose: 15.6 micrograms/kg/injection, schedule: Q01DX009 (ip), vehicle: other",95 % of control
same,T/C,"dose: 25.0 micrograms/kg/injection, schedule: Q01DX009 (ip), vehicle: saline + alcohol",106 % of control
same,T/C,"dose: 31.3 micrograms/kg/injection, schedule: Q01DX009 (ip), vehicle: other",92 % of control
same,T/C,"dose: 62.5 micrograms/kg/injection, schedule: Q01DX009 (ip), vehicle: other",97 % of control
same,T/C,"dose: 75.0 micrograms/kg/injection, schedule: Q04DX003 (ip), vehicle: saline + alcohol",103 % of control
same,T/C,"dose: 125.0 micrograms/kg/injection, schedule: Q01DX009 (ip), vehicle: other",105 % of control
same,T/C,"dose: 150.0 micrograms/kg/injection, schedule: Q04DX003 (ip), vehicle: saline + alcohol",106 % of control
same,T/C,"dose: 250.0 micrograms/kg/injection, schedule: Q01DX009 (ip), vehicle: other",121 % of control
same,T/C,"dose: 300.0 micrograms/kg/injection, schedule: Q04DX003 (ip), vehicle: saline + alcohol",121 % of control
same,T/C,"dose: 500.0 micrograms/kg/injection, schedule: Q01DX009 (ip), vehicle: other",103 % of control
same,T/C,"dose: 1200.0 micrograms/kg/injection, schedule: Q04DX003 (ip), vehicle: saline + alcohol",116 % of control
O=NN1CCCC1C(=O)O (stereo not given),T/C,[1],101 % of control
same,T/C,[2],101 % of control and 93 % of control
O=C1CCCCC1CCCBr (stereo not given),T/C,[3],102 % of control
same,T/C,[4],98 % of control
same,T/C,[5],95 % of control
CCN1C(=O)CN(CCN2CC(=O)N(c3ccccc3)C2=S)C1=S,T/C,[6],94 % of control
same,T/C,[7],102 % of control
same,T/C,[8],90 % of control
Cc1ccnc(NS(=O)(=O)c2ccc(NC(=O)c3ccc(C(=O)Nc4ccc(S(=O)(=O)Nc5nccc(C)n5)cc4)cc3)cc2)n1,T/C,"dose: 3.87 mg/kg/injection, schedule: Q01DX015 (ip), vehicle: methylcellulose (MC)",96 % of control
same,T/C,"dose: 7.75 mg/kg/injection, schedule: Q01DX015 (ip), vehicle: methylcellulose (MC)",101 % of control
same,T/C,"dose: 15.5 mg/kg/injection, schedule: Q01DX015 (ip), vehicle: methylcellulose (MC)",104 % of control
same,T/C,"dose: 31.0 mg/kg/injection, schedule: Q01DX015 (ip), vehicle: methylcellulose (MC)",104 % of control
same,T/C,"dose: 62.0 mg/kg/injection, schedule: Q01DX015 (ip), vehicle: methylcellulose (MC)",94 % of control
same,T/C,"dose: 125.0 mg/kg/injection, schedule: Q01DX015 (ip), vehicle: methylcellulose (MC)",101 % of control
same,T/C,"dose: 250.0 mg/kg/injection, schedule: Q01DX015 (ip), vehicle: methylcellulose (MC)",100 % of control
same,T/C,"dose: 500.0 mg/kg/injection, schedule: Q01DX015 (ip), vehicle: methylcellulose (MC)",102 % of control
CCC(=O)c1ccc2c(c1)N(CCCN(C)C)c1ccccc1S2,T/C,[9],98 % of control
same,T/C,[10],96 % of control
same,T/C,[11],115 % of control
same,T/C,[6],107 % of control
COC(C(C)C)[CH]1[Hg][O]C1=O (stereo not given),T/C,"dose: 0.5 mg/kg/injection, schedule: Q01DX001 (ip), vehicle: steriod suspending solution",103 % of control
same,T/C,"dose: 1.0 mg/kg/injection, schedule: Q01DX001 (ip), vehicle: steriod suspending solution",108 % of control
same,T/C,"dose: 2.0 mg/kg/injection, schedule: Q01DX001 (ip), vehicle: steriod suspending solution",111 % of control
CC[C@@](O)(C(=O)NC)c1cc2n(c(=O)c1CO)Cc1cc3ccccc3nc1-2,T/C,"dose: 2.3 mg/kg/injection, schedule: Q01DX015 (ip), vehicle: saline",155 % of control
same,T/C,"dose: 3.5 mg/kg/injection, schedule: Q01DX015 (ip), vehicle: saline",172 % of control
same,T/C,"dose: 4.0 mg/kg/injection, schedule: Q01DX001 (ip), vehicle: saline",110 % of control
same,T/C,"dose: 5.3 mg/kg/injection, schedule: Q01DX015 (ip), vehicle: saline",102 % of control
Cn1c(=S)[nH]c2cn[nH]c2c1=O,T/C,[3],93 % of control
same,T/C,[4],97 % of control
same,T/C,[5],89 % of control
COC1OC(CCl)C(OC(=O)c2ccccc2)C(OC(=O)c2ccccc2)C1OS(=O)(=O)c1ccc(C)cc1 (stereo not given),T/C,"dose: 75.0 mg/kg/injection, schedule: Q04DX002 (ip), vehicle: Klucel (hydroxypropylcellulose) (HPC)",87 % of control
same,T/C,"dose: 150.0 mg/kg/injection, schedule: Q04DX002 (ip), vehicle: Klucel (hydroxypropylcellulose) (HPC)",87 % of control
same,T/C,"dose: 300.0 mg/kg/injection, schedule: Q04DX002 (ip), vehicle: Klucel (hydroxypropylcellulose) (HPC)",97 % of control
CC(C)c1ccc(-n2c(=S)[nH]c3ccccc3c2=O)cc1,T/C,"dose: 100.0 mg/kg/injection, schedule: Q04DX002 (ip), vehicle: saline",107 % of control
same,T/C,"dose: 200.0 mg/kg/injection, schedule: Q04DX002 (ip), vehicle: saline",93 % of control
same,T/C,"dose: 400.0 mg/kg/injection, schedule: Q04DX002 (ip), vehicle: saline",104 % of control
COc1nc2c(N)ncnc2n1C1OC(CO)C(O)C1O (stereo not given),T/C,[1],97 % of control
same,T/C,[2],103 % of control
same,T/C,"dose: 400.0 mg/kg/injection, schedule: Q01DX001 (ip), vehicle: saline",103 % of control
COc1ccccc1/C=N/N=C(/N)N[N+](=O)[O-],T/C,"dose: 100.0 mg/kg/injection, schedule: Q01DX001 (ip), vehicle: Klucel (hydroxypropylcellulose) (HPC)",102 % of control
same,T/C,"dose: 200.0 mg/kg/injection, schedule: Q01DX001 (ip), vehicle: Klucel (hydroxypropylcellulose) (HPC)",101 % of control
same,T/C,"dose: 400.0 mg/kg/injection, schedule: Q01DX001 (ip), vehicle: Klucel (hydroxypropylcellulose) (HPC)",98 % of control
Oc1ccc(C2(c3ccc(O)cc3)CCCCC2)cc1,T/C,"dose: 25.0 mg/kg/injection, schedule: Q01DX009 (ip), vehicle: alcohol",112 % of control
same,T/C,"dose: 50.0 mg/kg/injection, schedule: Q01DX009 (ip), vehicle: alcohol",117 % of control
same,T/C,"dose: 100.0 mg/kg/injection, schedule: Q01DX009 (ip), vehicle: alcohol",87 % of control
same,T/C,[7],89 % of control
same,T/C,[8],92 % of control
O=C(Nc1cccc(C(F)(F)F)c1)Nc1ccc2sc(=S)[nH]c2c1,T/C,[9],95 % of control
same,T/C,[10],93 % of control
same,T/C,[11],93 % of control
same,T/C,[6],86 % of control
same,T/C,[7],86 % of control
same,T/C,"dose: 400.0 mg/kg/injection, schedule: Q01DX009 (ip), vehicle: saline with Tween-80",95 % of control
CCCCCCOC(=O)Nc1ccc([N+](=O)[O-])cc1OC,T/C,"dose: 100.0 mg/kg/injection, schedule: Q01DX009 (ip), vehicle: Klucel (hydroxypropylcellulose) (HPC)",103 % of control
same,T/C,"dose: 200.0 mg/kg/injection, schedule: Q01DX009 (ip), vehicle: Klucel (hydroxypropylcellulose) (HPC)",100 % of control
same,T/C,"dose: 400.0 mg/kg/injection, schedule: Q01DX009 (ip), vehicle: Klucel (hydroxypropylcellulose) (HPC)",95 % of control
CCCCOB1OC(c2ccccc2)(c2ccccc2)c2ccccc2C(c2ccccc2)(c2ccccc2)O1,T/C,"dose: 100.0 mg/kg/injection, schedule: Q01DX001 (ip), vehicle: carboxymethylcellulose (CMC)",91 % of control
same,T/C,"dose: 200.0 mg/kg/injection, schedule: Q01DX001 (ip), vehicle: carboxymethylcellulose (CMC)",91 % of control
same,T/C,"dose: 400.0 mg/kg/injection, schedule: Q01DX001 (ip), vehicle: carboxymethylcellulose (CMC)",98 % of control
C=C(Br)C(C)(C)C,T/C,"dose: 50.0 mg/kg/injection, schedule: Q01DX009 (ip), vehicle: saline",101 % of control
same,T/C,"dose: 100.0 mg/kg/injection, schedule: Q01DX009 (ip), vehicle: saline",101 % of control
same,T/C,"dose: 200.0 mg/kg/injection, schedule: Q01DX009 (ip), vehicle: saline",101 % of control
CCC[N+](=CC1CCCCC1)CCC,T/C,"dose: 100.0 mg/kg/injection, schedule: Q04DX003 (ip), vehicle: saline",104 % of control
same,T/C,"dose: 200.0 mg/kg/injection, schedule: Q04DX003 (ip), vehicle: saline",95 % of control
same,T/C,"dose: 400.0 mg/kg/injection, schedule: Q04DX003 (ip), vehicle: saline",91 % of control
